Results reported in patent US10300067B2, “Tetrahydropyridopyrimidine compound or salt thereof” (TAIHO PHARMACEUTICAL CO., LTD., priority 2014, dated 2019).

Legend:
Format in all cases: cell-based
[1] = target: human androgen receptor (Homo sapiens (Human), UniProt P10275); test: Antagonist activity for AR (pMMTV-luc reporter transcription activity in transfected COS-7 cells, DHT 1 nmol/L); details: for IC50: 50% transcription activity inhibition concentration, COS-7 cells with pMMTV-luc and pEX-hAR, DHT 1 nmol/L, 24 hours
human androgen receptor, sequence (P10275 whole entry): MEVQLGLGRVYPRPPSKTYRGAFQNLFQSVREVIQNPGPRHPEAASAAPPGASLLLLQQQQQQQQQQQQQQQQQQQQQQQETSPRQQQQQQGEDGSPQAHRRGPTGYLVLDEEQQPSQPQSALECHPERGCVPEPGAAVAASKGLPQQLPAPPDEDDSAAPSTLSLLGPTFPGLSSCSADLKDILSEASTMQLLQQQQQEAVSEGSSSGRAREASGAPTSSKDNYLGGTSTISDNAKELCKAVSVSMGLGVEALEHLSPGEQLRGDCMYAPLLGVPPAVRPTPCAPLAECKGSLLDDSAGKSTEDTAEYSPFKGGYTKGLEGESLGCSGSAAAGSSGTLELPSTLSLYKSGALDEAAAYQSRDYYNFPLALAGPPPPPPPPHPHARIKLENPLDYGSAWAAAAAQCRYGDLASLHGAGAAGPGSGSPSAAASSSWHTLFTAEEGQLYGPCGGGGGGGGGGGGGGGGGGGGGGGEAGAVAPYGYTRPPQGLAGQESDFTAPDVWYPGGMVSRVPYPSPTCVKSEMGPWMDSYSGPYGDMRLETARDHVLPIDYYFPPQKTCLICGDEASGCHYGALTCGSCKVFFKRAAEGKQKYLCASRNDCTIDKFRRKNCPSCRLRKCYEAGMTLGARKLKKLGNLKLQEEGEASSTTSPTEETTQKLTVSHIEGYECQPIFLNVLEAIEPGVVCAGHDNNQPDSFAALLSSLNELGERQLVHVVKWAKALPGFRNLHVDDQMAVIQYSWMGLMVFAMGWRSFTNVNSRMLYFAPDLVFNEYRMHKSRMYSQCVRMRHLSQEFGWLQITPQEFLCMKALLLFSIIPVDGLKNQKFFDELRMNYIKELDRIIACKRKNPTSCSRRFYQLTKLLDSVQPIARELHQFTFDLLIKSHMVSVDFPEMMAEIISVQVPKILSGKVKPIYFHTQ
Description: Antagonist activity for AR was evaluated according to the following method. COS-7 cells (ATCC) were transfected with pMMTV-luc vector (reporter plasmid having, as an androgen response element, […] long terminal repeat) and pEX-hAR vector (human androgen receptor expression vector: which expresses human AR gene under control of CMV promoter) by using Nucleofector (registered trademark) Kit R (Lonza) as a transfection reagent and Amaxa (Lonza). The COS-7 cells obtained after transfection were seeded in a clear bottom 96 well microplate (BD) at 1.5×10^4/well with phenol red free RPMI1640 containing 10% charcoal-treated fetal bovine serum (hereinbelow, DCC-FBS) (hereinbelow, the medium is referred to as an evaluation medium), and then cultured overnight. […] Then, the transcription activity value was measured. The transcription activity was measured by using Bright-Glo™ Luciferase Assay System (Promega).

[2] = system: AR positive human prostate cancer cells VCaP; test: Agonist activity for AR (cell proliferation rate of VCaP cells); details: 72 hours, 2 to 10000 nmol/L, more than 10% at any concentration = agonist activity for AR
Description: AR positive human prostate cancer cells VCaP (In Vivo 15:163-168, 2001) were seeded in a clear bottom 96 well microplate (BD) at 1.5×10^4/well with phenol red free RPMI1640 containing 5% DCC-FBS (hereinbelow, the medium is referred to as an evaluation medium), and then cultured overnight. The culture was added with the evaluation medium containing the compound of Examples or the compound of Comparative Examples (final concentration of the compound of Examples or the compound of Comparative Examples: 2, 5, 14, 41, 123, 370, 1111, 3333, or 10000 nmol/L), followed by culture for 72 hours. Then, the number of viable cells was counted (test group). As a control, the cells were cultured after being added with the evaluation medium only, and the number of viable cells was counted (control group). The number of viable cells was measured by using CellTiter-Glo™ Luminescent Cell Viability Assay (Promega). From the measured number of viable cells, cell proliferation rate with respect to the compound of Examples or the compound of Comparative Examples was calculated based on the number of viable cells measured in the case of using the evaluation medium only. Cell proliferation rate (%) =(Number of viable cells in test group−Number of viable cells in control group)/(Number of viable cells in control group)×100
By considering an error in the number of viable cells measured in the case of using the evaluation medium only, when the cell proliferation rate was more than 10% at any concentration of the 9 concentrations which had been evaluated, it was determined to have an agonist activity for AR.

[3] = target: androgen receptor (Homo sapiens (Human), UniProt P10275, T878A); test: Activity of reducing expression level of androgen receptor (Western blotting of LNCaP cell lysate); details: 48 hours
androgen receptor, sequence (P10275 whole entry T878A): as the sequence (P10275 whole entry) above, with T878A counted along it
Description: AR positive human prostate cancer cells LNCaP were seeded in a clear bottom 6 well microplate (BD) at 3.5×10^5/well with phenol red free RPMI1640 containing 5% FBS (hereinbelow, the medium is referred to as an evaluation medium), and then cultured overnight. The culture was added with the evaluation medium containing the compound of Examples or the compound of Comparative Examples such that the final concentration of the compound of Examples or the compound of Comparative Examples was 10000 nmol/L, followed by culture for 48 hours. After culture for 48 hours, the medium was removed and the cells were washed with PBS and added with 0.1 mL of Lysis buffer (M-PER added with Protease Inhibitor Cocktail), followed by keeping at 4° C. for 20 minutes. After cell lysis, the cell solution was centrifuged to recover the supernatant as cell lysate. […] The antibody-reacting band (anti AR receptor) was quantified by LAS-3000 (FUJIFILM) using Super Signal West Pico Substrate (Thermo Scientific) as a detection reagent.

SMILES	IC50 [1] [nM]	Cell proliferation rate (%) [2] [%]	other results
N#Cc1ccc(N2CCc3c(ncnc3Nc3ccc(C(=O)NCC(F)F)nc3)C2)cc1C(F)(F)F [Example 48, 5-((7-(4-Cyano-3-(trifluoromethyl)phenyl)-5,6,7,8-tetrahydropyrido[3,4-d]pyrimidin-4-yl)amino)-N-(2,2-difluoroethyl)picolinamide]	490	−2.6	–
N#Cc1ccc(N2CCc3c(ncnc3Nc3cccc(-c4ccccc4)c3)C2)cc1C(F)(F)F [Example 4, 4-(4-((1,1′-Biphenyl)-3-ylamino)-5,6-dihydropyrido[3,4-d]pyrimidin-7(8H)-yl)-2-(trifluoromethyl)benzonitrile]	620	–	10 μM AR expression reducing activity [3]: reduced (When the AR expression reducing activity is 50% or more, it is described as “reduced”)
COc1ccc(Nc2ncnc3c2CCN(c2ccc(C#N)c(Cl)c2)C3)cc1 [Example 54, 2-Chloro-4-(4-((4-methoxyphenyl)amino)-5,6-dihydropyrido[3,4-d]pyrimidin-7(8H)-yl)benzonitrile]	–	3.4	–
CC(C)(O)c1ccc(Nc2ncnc3c2CCN(c2ccc(C#N)cc2)C3)nc1 [Comparative Example 11, 4-(4-((5-(2-Hydroxypropan-2-yl)pyridin-2-yl)amino)-5,6-dihydropyrido[3,4-d]pyrimidin-7(8H)-yl)benzonitrile, reference compound]	> 10000	–	antagonist activity for AR (in words) ([1]; COS-7 reporter assay): did not show the antagonist activity for AR
N#Cc1ccc(N2CCc3c(ncnc3Nc3ccc(CC(=O)NCC(F)(F)F)cn3)C2)cc1C(F)(F)F [Example 22, 2-(6-((7-(4-Cyano-3-(trifluoromethyl)phenyl)-5,6,7,8-tetrahydropyrido[3,4-d]pyrimidin-4-yl)amino)pyridin-3-yl)-N-(2,2,2-trifluoroethyl)acetamide]	370	–	–
CC(C)(COc1ccc(Nc2ncnc3c2CCN(c2ccc(C#N)c(Cl)c2)C3)nc1)n1cnnn1 [Example 53, 2-Chloro-4-(4-((5-(2-methyl-2-(1H-tetrazol-1-yl)propoxy)pyridin-2-yl)amino)-5,6-dihydropyrido[3,4-d]pyrimidin-7(8H)-yl)benzonitrile]	55	–	–
N#Cc1ccc(N2CCc3c(ncnc3Nc3ccc(C4(O)CC4)cn3)C2)cc1C(F)(F)F [Example 12, 4-(4-((5-(1-Hydroxycyclopropyl)pyridin-2-yl)amino)-5,6-dihydropyrido[3,4-d]pyrimidin-7(8H)-yl)-2-(trifluoromethyl)benzonitrile]	170	–	10 μM AR expression reducing activity [3]: reduced (When the AR expression reducing activity is 50% or more, it is described as “reduced”)
CC(C)(O)c1ccc(Nc2ncnc3c2CCN(c2ccc(C#N)cc2Cl)C3)nc1 [Comparative Example 5, 3-Chloro-4-(4-((5-(2-hydroxypropan-2-yl)pyridin-2-yl)amino)-5,6-dihydropyrido[3,4-d]pyrimidin-7(8H)-yl)benzonitrile, reference compound]	> 10000	–	–
N#Cc1ccc(N2CCc3c(ncnc3Nc3cc(C(=O)NCC(F)(F)F)ccn3)C2)cc1C(F)(F)F [Example 31, 2-((7-(4-Cyano-3-(trifluoromethyl)phenyl)-5,6,7,8-tetrahydropyrido[3,4-d]pyrimidin-4-yl)amino)-N-(2,2,2-trifluoroethyl)isonicotinamide]	390	–	–
N#Cc1cccc(N2CCc3c(ncnc3Nc3ccc(C(=O)NCC(F)(F)F)cn3)C2)c1C(F)(F)F [Comparative Example 10, 6-((7-(3-Cyano-2-(trifluoromethyl)phenyl)-5,6,7,8-tetrahydropyrido[3,4-d]pyrimidin-4-yl)amino)-N-(2,2,2-trifluoroethyl)nicotinamide, reference compound]	> 10000	–	–
CC(C)(O)c1cnc(Nc2ncnc3c2CCN(c2ccc(C#N)c(Cl)c2)C3)cc1F [Example 45, 2-Chloro-4-(4-((4-fluoro-5-(2-hydroxypropan-2-yl)pyridin-2-yl)amino)-5,6-dihydropyrido[3,4-d]pyrimidin-7 (8H)-yl)benzonitrile]	940	–	–
N#Cc1ccc(N2CCc3c(ncnc3Nc3ccc(OCCn4ccnn4)nc3)C2)cc1C(F)(F)F [Example 15, 4-(4-((6-(2-(1H-1,2,3-Triazol-1-yl)ethoxy)pyridin-3-yl)amino)-5,6-dihydropyrido[3,4-d]pyrimidin-7 (8H)-yl)-2-(trifluoromethyl)benzonitrile]	130	0.3	–
CC(O)c1ccc(Nc2ncnc3c2CCN(c2ccc(C#N)c(C(F)(F)F)c2)C3)cc1 (stereo not drawn) [Example 58]	–	2.0	–
N#Cc1ccc(C(F)(F)F)cc1N1CCc2c(ncnc2Nc2ccc(C(=O)NCC(F)(F)F)cn2)C1 [Comparative Example 9, 6-((7-(2-Cyano-5-(trifluoromethyl)phenyl)-5,6,7,8-tetrahydropyrido[3,4-d]pyrimidin-4-yl)amino)-N-(2,2,2-trifluoroethyl)nicotinamide, reference compound]	> 10000	–	–
CC(C)(O)c1ccc(Nc2ncnc3c2CCN(c2cccc(Cl)c2C#N)C3)nc1 [Comparative Example 7, 2-Chloro-6-(4-((5-(2-hydroxypropan-2-yl)pyridin-2-yl)amino)-5,6-dihydropyrido[3,4-d]pyrimidin-7 (8H)-yl)benzonitrile, reference compound]	> 10000	–	–
COc1cccc(Nc2ncnc3c2CCN(c2ccc(C#N)c(Cl)c2)C3)c1 [Example 55, 2-Chloro-4-(4-((3-methoxyphenyl)amino)-5,6-dihydropyrido[3,4-d]pyrimidin-7(8H)-yl)benzonitrile]	–	1.0	–
N#Cc1ccc(N2CCc3c(ncnc3Nc3ncc(C(=O)NCC(F)(F)F)nn3)C2)cc1C(F)(F)F [Example 25, 3-((7-(4-Cyano-3-(trifluoromethyl)phenyl)-5,6,7,8-tetrahydropyrido[3,4-d]pyrimidin-4-yl)amino)-N-(2,2,2-trifluoroethyl)-1,2,4-triazine-6-carboxamide]	3320	6.3	–
N#Cc1cc(C(F)(F)F)ccc1N1CCc2c(ncnc2Nc2ccc(C(=O)NCC(F)(F)F)cn2)C1 [Comparative Example 8, 6-((7-(2-Cyano-4-(trifluoromethyl)phenyl)-5,6,7,8-tetrahydropyrido[3,4-d]pyrimidin-4-yl)amino)-N-(2,2,2-trifluoroethyl)nicotinamide, reference compound]	> 10000	–	–
N#Cc1ccc(N2CCc3c(ncnc3Nc3ccc(C4(O)CCC4)c(F)n3)C2)cc1Cl [Example 56, 2-Chloro-4-(4-((6-fluoro-5-(1-hydroxycyclobutyl)pyridin-2-yl)amino)-5,6-dihydropyrido[3,4-d]pyrimidin-7 (8H)-yl)benzonitrile]	840	8.0	–
CC(C)(O)C1CCN(C(=O)c2nnc(Nc3ncnc4c3CCN(c3ccc(C#N)c(C(F)(F)F)c3)C4)o2)CC1 [Example 43, 4-(4-((5-(4-(2-Hydroxypropan-2-yl)piperidin-1-carbonyl)-1,3,4-oxadiazol-2-yl)amino)-5,6-dihydropyrido[3,4-d]pyrimidin-7(8H)-yl)-2-(trifluoromethyl)benzonitrile]	790	–	–
CC(C)(O)c1ccc(Nc2ncnc3c2CCN(c2cc(Cl)cc(C#N)c2)C3)nc1 [Comparative Example 6, 3-Chloro-5-(4-((5-(2-hydroxypropan-2-yl)pyridin-2-yl)amino)-5,6-dihydropyrido[3,4-d]pyrimidin-7 (8H)-yl)benzonitrile, reference compound]	> 10000	–	–
N#Cc1ccc(N2CCc3c(ncnc3Nc3ccc(NC(=O)OCC(F)(F)F)cn3)C2)cc1C(F)(F)F [Example 21, 2,2,2-Trifluoroethyl (6-((7-(4-cyano-3-(trifluoromethyl)phenyl)-5,6,7,8,-tetrahydropyrido[3,4-d]pyrimidin-4-yl)amino)pyridin-3-yl)carbamate]	380	−0.6	–
